Reference: the COVID Moonshot data (paper PMC11187573), “Identification of SARS-CoV-2 Mpro inhibitors through deep reinforcement learning for de novo drug design and computational chemistry approaches” (RSC Medicinal Chemistry, 2024)
pIC50: −log10 of the molar value.

What was measured:
[1] = target: SARS-CoV-2 Main Protease (SARS-CoV-2) (UniProt P0DTD1)
Description: Compounds were seeded into assay-ready plates (Greiner 384 low volume, cat 784900) using an Echo 555 acoustic dispenser, and DMSO was back-filled for a uniform concentration in assay plates (DMSO concentration maximum 1%) Screening assays were performed in duplicate at 20µM and 50µM. […] Dose response assays were performed in 12 point dilutions of 2-fold, typically beginning at 100µM. […] Reagents for Mpro assay were dispensed into the assay plate in 10µl volumes for a final volume of 20µL.
Mpro was pre-incubated for 15 minutes at room temperature with compound before addition of substrate and a further 30 minute incubation. Protease reaction was measured in a BMG Pherastar FS with a 480/520 ex/em filter set. Raw data was mapped and normalized to high (Protease with DMSO) and low (No Protease) controls using Genedata Screener software.

[2] = target: SARS-CoV-2 Main Protease (SARS-CoV-2) (UniProt P0DTD1); conditions: for inhibition: 50.0 µM

| Compound | inhibition ([1]; 20.0 µM) | inhibition ([1]; 50.0 µM) | inhibition [2] | pIC50 [2] | pIC50 [1] |
| --- | --- | --- | --- | --- | --- |
| C#Cc1ncccc1NC(=O)Cc1cccc(Cl)c1 | -2.01% | 3.62% | 7.93% |  |  |
| Cc1ccc(CN2CCC(CNC(=O)Nc3cn(CC(C)C)c(=O)c4ccccc34)C2)cc1 (configuration not stated) | -3.01% | 0.927% |  | 4.03 |  |
| Cc1ccncc1NC(=O)C[C@H](c1ccccc1)N1CCC(O)CC1 (stereo in doubt) | 6.5% | 34.5% |  | 4.17 |  |
| O=C(Nc1cccnc1)N(CCN1CCOCC1)c1cccc(Cl)c1 | 24.4% | 49.6% | 59.4% |  |  |
| CC(C)C[C@@H]1CN(C(=O)CCl)CCN1Cc1cccc(Cl)c1 (stereo in doubt) | 99.2% | 99.5% | 100% | 6.29 |  |
| CO[C@@H]1C[C@@H](COc2cccnc2)N(c2ncccn2)C1 (stereo in doubt) | -6.63% | -1.19% | 0% |  |  |
| O=C(Cc1ccc(Cl)c(Cl)c1)Nc1cncc2ccccc12 |  |  |  | 6.88 | 6.58 |
| CC(C)n1cnnc1CNC(=O)C1CCOc2ccccc21 (configuration not stated) | -4.11% | -1.11% | 0% |  |  |
| N#Cc1cnn(C(=O)c2cccs2)c1C1CC1 | 33.2% | 69% |  | 6.44 |  |
| CCOC(=O)c1c(C)n(S(C)(=O)=O)c2ccc(N(C(=O)c3ccco3)S(C)(=O)=O)cc12 | 67.5% | 98.6% |  | 6.83 |  |
| N#Cc1cncc(NC(=O)Cc2c[nH]c3ncccc23)c1 | -0.384% | 0.0775% | 0% |  |  |
| CC(C)n1c(NC(=O)C2CCOc3ccccc32)nc2ccccc21 (configuration not stated) | 27.9% | -2.12% | 8.85% |  |  |
| O=S(=O)(Cc1noc(C2CC2)n1)Nc1cccnc1 | -2.48% | -1.33% | 9.43% |  |  |
| COc1ccc(-n2cc(CN3CCN(C(=O)CCl)CC3)nn2)cc1 | 10.9% | 24.9% | 24.1% |  |  |
| C=CC(=O)N(C1CCOC1=O)C(C(=O)NC(C)(C)C)c1cccnc1 (configuration not stated) | -5.08% | -7.63% | 0% |  |  |
| Cc1ccc(S(=O)(=O)Nc2c(-c3cccnc3)nc3ccccn23)c(C)c1 | 2.5% | 7.7% | 0% |  |  |
| O=C(NCc1cccnn1)Nc1cccc(-c2ncc3n2CCCC3)c1 | -2.92% | -5.29% | 0% |  |  |
| Cc1cccc(NC(=O)CN2C(=O)C(=O)c3ccccc32)c1 | -4.74% | -1.42% | 53.7% | 4.37 |  |
| COc1cccc(C(=O)Nc2n[nH]c(SCc3ccc(Cl)cc3)n2)c1 | 8.77% | 32.5% |  | 6.70 |  |
| COc1ccccc1OCCNC(=O)c1cc(=O)[nH]c2cccc(F)c12 | 8.74% | 12.5% |  | 5.74 |  |
| O=C1C(=O)N(CCCOc2ccc(Cl)cc2)c2ccccc21 | -0.218% | 3.47% | 7.23% |  |  |
| O=C(Nc1cncc2ccccc12)C1=CCCc2ccc(Cl)cc21 |  |  |  | 7.09 |  |
| O=C(Cn1nnc2ccccc21)N(Cc1ccsc1)c1ccc(N2CCCCC2)cc1 |  |  |  | 5.20 |  |
| O=C(Nc1c[nH]c(=O)c2ccccc12)C1CCOc2ccc(Cl)cc21 (configuration not stated) |  |  |  | 4.08 |  |
| CCc1cc(F)ccc1-c1cc(Cl)cc(CC(=O)Nc2cnccc2C)c1 |  |  |  | 4.58 |  |
| CC(C)(C)c1ccc(N(C(=O)c2ccc(Cl)o2)C(C(=O)NCCc2cccc(F)c2)c2cccnc2)cc1 (configuration not stated) |  |  | 69.3% | 6.29 |  |
| COc1ccc2c(NC(=O)C3CCOc4ccc(Cl)cc43)noc2c1 (configuration not stated) |  |  |  | 4.27 |  |
| Cc1ccncc1NC(=O)C(C)c1cc(Cl)cc(OC2CC(=O)N2)c1 (configuration not stated) |  |  |  | 4.06 |  |
